Here are results for 8 molecules from patent US8354401B2, “Oxazolidinone amide aromatic compounds for supressing MMP-9 production” (Mitsubishi Tanabe Pharma Corporation, priority 2008, dated 2013).

Assay [1] relates to proMMP-9 production by human TNFα stimulated THP-1 cell. In words: Action of human TNFα stimulated THP-1 cell on proMMP-9 production (ELISA of culture supernatant). In kind it is cell-based. The conditions noted are these: THP-1 cells, human TNFα 10 ng/mL, 24 hr; IC50 from 10, 100 and 1,000 nmol/L; read-out: Experimental Example 1 proMMP-9 production suppression (IC50). The protocol: Action of Human TNFα Stimulated THP-1 Cell on proMMP-9 Production
THP-1 cell (human monocytic leukemia cell line) was adjusted to 1×10^7 cells/mL in a culture medium (10% fetal bovine serum/RPMI1640 medium), and dispensed to a 96 well multiplate. This was equilibrated under the conditions of 37° C./5% CO2, and a culture medium containing human TNFα (final concentration 10 ng/mL) and a test compound was added thereto. After incubation under the conditions of 37° C./5% CO2 for 24 hr, the culture medium was centrifugated and the culture supernatant was collected, which was subjected to the following measurement.
Quantification of proMMP-9 in Culture Supernatant
The proMMP-9 concentration of the collected culture supernatant was quantified using a commercially available measurement reagent (manufactured by GE Healthcare, MMP-9, Human, Biotrak ELISA System).
Calculation of proMMP-9 Suppression Rate
The proMMP-9 suppression rate of the test compound was calculated from the following formula: % suppression=100−((Test−Min)/(Max−Min)×100) wherein Max is proMMP-9 concentration of culture supernatant induced by stimulation with human TNFα, without addition of a test compound (added with solvent alone) • Min is proMMP-9 concentration of culture supernatant without addition of a test compound (added with solvent alone) and without stimulation with human TNFα, and • Test is proMMP-9 concentration of culture supernatant induced by stimulation with human TNFα when a test compound is added.
Furthermore, the concentration of the test compound necessary for suppressing proMMP-9 production by human TNFα stimulated THP-1 cell by 50% (IC50 value) was calculated from 3 points of proMMP-9 suppression rate at test compound concentrations of 10, 100 and 1,000 nmol/L.

Assay [2] has as its system proMMP-2 production by THP-1 cell. The experiment in a line: Action of THP-1 cell on hemostatic type proMMP-2 production (ELISA of culture supernatant). Conditions: THP-1 cells, 24 hr. In kind it is cell-based, human. How it is done:
Action of THP-1 Cell on Hemostatic Type proMMP-2 Production
THP-1 cell (human monocytic leukemia cell line) was adjusted to 1×10^7 cells/mL in a culture medium (10% fetal bovine serum/RPMI1640 medium), and dispensed to a 96 well multiplate. This was equilibrated under the conditions of 37° C./5% CO2, and a culture medium containing a test compound was added thereto. After incubation under the conditions of 37° C./5% CO2 for 24 hr, the culture medium was centrifugated and the culture supernatant was collected, which was subjected to the following measurement.
Quantification of proMMP-2 in Culture Supernatant
The proMMP-2 concentration of the collected culture supernatant was quantified using a commercially available measurement reagent (manufactured by GE Healthcare, MMP-2, Human, Biotrak ELISA System).
Calculation of proMMP-2 Suppression Rate
The proMMP-2 suppression rate of the test compound was calculated from the following formula: % suppress=100−((Test/Cont)×100). wherein Cont is proMMP-2 concentration of culture supernatant without addition of a test compound (added with solvent alone) and Test is proMMP-2 concentration of culture supernatant with addition of a test compound.
Background: In an ELISA, binding on a coated surface is turned into a signal by an enzyme label.

The test system of assay [3] is rat monoiodoacetic acid-induced osteoarthritis model. In words: Suppressive action on articular joints injury of rat monoiodoacetic acid-induced osteoarthritis model. In kind it is in vivo. The conditions noted are these: LEW rat. How it is done: Suppressive Action on Articular Joints Injury of Rat Monoiodoacetic Acid-Induced Osteoarthritis Model
Monoiodoacetic acid solution (0.3 mg/25 μL) was injected into the right hindpaw knee joint cavity of anesthetized rats (LEW, male, 7-week-old). […] On day 7, right hindpaw knee joint was taken from euthanized rats, and fixed with 10% neutral formalin solution. A pathology specimen of knee joint was prepared, stained with Hematoxylin Eosin and Safranine O, and the state of joint cartilage injury was scored under microscopic observation. For articular joint injury scores, changes in each pathological finding in medial condyle of femur and medial condyle of tibia (cartilage surface tuberosity, erosion/ulcer/fibrillation, chondrocyte disorganization/disappearance/hypertrophy, reduction of Safranine staining) were divided into mild, moderate and severe according to the method of Kobayashi et al. (Kobayashi K et al. J. Vet. Med. Sci. 65, 1195 1199 2003), and indicated in the scores of 1, 2 and 3 and totaled. Furthermore, an average of the score of medial condyle of femur and that of medial condyle of tibia was determined and used as an articular joint injury score.

In assay [4] the test system is rat adjuvant induced arthritis model. The experiment in a line: Suppressive action on hindpaw edema of rat adjuvant induced arthritis model. Conditions: LEW rat, difference of hindpaw volume day 15 vs day 21, in mL (unit assumed). In kind it is in vivo. How it is done:
Suppressive Action on Hindpaw Edema of Rat Adjuvant Induced Arthritis Model
Anesthetized rats (LEW, male, 6-week-old) were immunized with M. Butyricum (5 mg/mL) at a dose of 0.1 mL/body by subcutaneous administration from the tail root. […] The test compound was orally administered once a day from immediately after allocation on day 15 to day 20 at doses of 3 and 30 mg/kg, and the hindpaw volume was measured again on day 21. The amount of hindpaw edema was the difference in the amount between hindpaw volume on day 15 and that on day 21.

Assay [5] deals with rat dinitrobenzene-induced colitis model. The experiment in a line: Suppressive action on large intestine weight increase of rat dinitrobenzene-induced colitis model. The assay is classed as in vivo. Conditions: Wistar rat, 30 mg/kg oral once a day to day 7, measured day 8. How it is done: Suppressive Action on Large Intestine Weight Increase of Rat Dinitrobenzene-Induced Colitis Model
A dinitrobenzene solution (30 mg/0.1 mL) was injected into the large intestine of anesthetized rats (Wistar, male, 6-week-old). A test compound was orally administered once a day from the previous day of the dinitrobenzene injection to day 7 at a dose of 30 mg/kg. On day 8, the large intestine was isolated from euthanized rats, and the wet weight thereof was measured. The large intestine weight was amended to the weight per 100 g body weight of the rats on day 8.

[6] abbreviates: 10 mg/kg oral once a day to day 6, scored day 7.
Setting [7] is: 3 mg/kg oral once a day to day 6, scored day 7.

As a reminder, the IC50 is the concentration that inhibits the measured activity by half.

For `Cc1ccc(N2CCN(C(=O)c3c(F)cc(N4CCOC4=O)cc3F)CC2)c(C)c1` [Example 1, 3-{4-[4-(2,4-dimethylphenyl)piperazine-1-carbonyl]-3,5-difluorophenyl}oxazolidin-2-one], in assay [1], the IC50 was found to be 44 nM. Besides, the “Experimental Example 2 proMMP-2 production suppression (% suppression, 10 μM)” value in assay [2] was determined as 17.4%.
On the same counts, the results for `Cc1ccc(N2CCN(C(=O)c3ccc(N4C(=O)OC[C@H]4CO)cc3S(C)(=O)=O)CC2)c(C)c1` [Example 19, (R)-3-{4-[4-(2,4-dimethylphenyl)piperazine-1-carbonyl]-3-methanesulfonylphenyl}-4-hydroxymethyloxazolidin-2-one] are 11 nM and 22.5%.
As to `Cc1ccc(C(=O)C2CCN(C(=O)c3ccc(N4CCOC4=O)nc3)CC2)cc1` [Example 42, 3-{5-[4-(4-methylbenzoyl)piperidine-1-carbonyl]pyridin-2-yl}oxazolidin-2-one], in assay [3] (setting [6]), the “articular joint injury score of compound administration group” value (“articular joint injury score” below) is 3.8 ± 0.7.
With `Cc1cnc(N2CCN(C(=O)c3ccc(N4C(=O)OC[C@H]4C)cc3S(C)(=O)=O)CC2)c(C)c1` [Example 81, (R)-3-{4-[4-(3,5-dimethylpyridin-2-yl)piperazine-1-carbonyl]-3-methanesulfonylphenyl}-4-methyloxazolidin-2-one], the “articular joint injury score” value in assay [3] (setting [6]) turned out to be 4.4 ± 0.4.
As to `Cc1cnc(N2CCN(C(=O)c3ccc(N4C(=O)OC[C@H]4C)nc3)CC2)c(C)c1.Cl.Cl` [Example 109, (R)-3-{5-[4-(3,5-dimethylpyridin-2-yl)piperazine-1-carbonyl]pyridin-2-yl}-4-methyloxazolidin-2-one 2hydrochloride], the “articular joint injury score” value in assay [3] (setting [7]) was found to be 4.1 ± 0.4.
For `Cc1ccc(N2CCN(C(=O)c3ccc(N4CCOC4=O)cc3)CC2)c(C)c1` [Example 8, 3-{4-[4-(2,4-dimethylphenyl)piperazine-1-carbonyl]phenyl}oxazolidin-2-one], the half-maximal inhibitory concentration (IC50) in assay [1] was 48 nM. The “articular joint injury score” value in assay [3] (setting [7]) worked out at 4.4 ± 0.5. The hindpaw edema volume in assay [4] (3 mg/kg oral once a day day 15 to day 20) came to 0.27 ± 0.17; in assay [4] (30 mg/kg oral once a day day 15 to day 20), 0.20 ± 0.18. Also, in assay [2], the “Experimental Example 2 proMMP-2 production suppression (% suppression, 10 μM)” value is given as 11.6%. The “large intestine weight (g/100 g body weight)” value in assay [5] is recorded as 0.457 ± 0.031 g/100 g body weight.
Turning to `Cc1ccc(N2CCN(C(=O)c3ccc(N4CCOC4=O)cc3C)CC2)c(C)c1` [Example 6, 3-{4-[4-(2,4-dimethylphenyl)piperazine-1-carbonyl]-3-methylphenyl}oxazolidin-2-one], the concentration for half-maximal inhibition (IC50) in assay [1] came out at 59 nM. Besides, the “Experimental Example 2 proMMP-2 production suppression (% suppression, 10 μM)” value in assay [2] is recorded as 12.6%.
As for `Cc1ccc(N2CCN(C(=O)c3ccc(N4CCOC4=O)cc3S(C)(=O)=O)CC2)c(C)c1` [Example 11, 3-{4-[4-(2,4-dimethylphenyl)piperazine-1-carbonyl]-3-methanesulfonylphenyl}oxazolidin-2-one], the concentration for half-maximal inhibition (IC50) in assay [1] was 40 nM. In assay [2], the “Experimental Example 2 proMMP-2 production suppression (% suppression, 10 μM)” value was 12.4%.
